Results published in US20070248657A1, “Multi-compartment transdermal pain control device” (priority 2006, published 2007).
Where two headings read alike, the source gives them in different places.

Legend:
[1] = human

SMILES: COc1ccc2c(c1)[C@]13CCCC[C@@H]1[C@H](C2)N(C)CC3 [Dextromethorphan, dextromethorphan]
- flux through human cadaver epidermis (clinical significance) (human, pH 8.6): higher than at a pH of 7.3
- flux through human cadaver epidermis (clinical significance) (pH 5.6): clinically insignificant
- flux through human cadaver epidermis (clinical significance) (pH 7.3): remains clinically insignificant

SMILES: O=C(c1ccccc1)c1ccc2n1CCC2C(=O)O (stereo not shown) [Ketorolac, ketorolac tromethamine]
- Cumulative Flux ([1]; 0 h): 0 μg/cm^2
- Cumulative Flux ([1]; 3 h): 24 μg/cm^2
- Cumulative Flux ([1]; 6 h): 7 μg/cm^2
- Cumulative Flux ([1]; 9 h): 11 μg/cm^2
- Cumulative Flux ([1]; 24 h): 100 μg/cm^2
- Cumulative Flux ([1]; 48 h): 412 μg/cm^2
- Cumulative Flux ([1]; 72 h): 726 μg/cm^2
- flux through human cadaver epidermis (clinical significance) (pH 5.6): clinically significant
- flux through human cadaver epidermis (clinical significance) (pH 7.3): decreased to a clinically insignificant level
- flux through human cadaver epidermis (clinical significance) (pH 8.6): remains clinically insignificant
